Patent US11116719B2, “Methods of treating Meniere's disease” (priority 2017, dated 2021)
Where “and” joins values, the source holds several entries; their conditions need not be identical. Identical values can stand only once. Like-named read-outs stand apart in the source and are kept apart here.

Experiments:
[1] = tested on: humans with Eustachian tube dysfunction; conditions: cited from earlier work
[2] = tested on: Eustachian tube function in rat model; conditions: topical application; cited from earlier work
[3] = high concentrations; cited from earlier work
[4] = tested on: eustachian tube function in "normal" volunteers; conditions: cited from earlier work; for effect on eustachian tube function (tympanometry): "normal" volunteers, nasal application
[5] = tested on: human patients suffering from secondary Meniere's disease (activated cervical sympathetic nervous system, mild Eustachian tube dysfunction); test: Clinical treatment of secondary Meniere's disease patients with oral betahistine, electrocochleography (ECochG) SP/AP amplitude ratio and symptoms; assay type: in vivo
Description: Patients, aged 19-70 years, have undergone baseline testing to determine SP/AP amplitude ratio using ECochG in Meniere's disease patients before the start of study treatment. The effect on SP/AP amplitude ratio was evaluated after a predetermined period of treatment with betahistine or a pharmaceutically acceptable salt.
Patients were seated in a swivel chair and the chair rotated while the patient's head was stabilized. Effect of rotational movement was observed and pupil enlargement a determinant of secondary Meniere's disease.
Dose levels included 16 mg of betahistine three time daily for predetermined period. 8 mg dose twice daily thereafter for a second predetermined period.
Patient studies comprise a range of dosing regimens including tablets, powders, sprays. In present studies unless otherwise stated each dose was administered in a tablet form in the morning taken after food.
Route of Administration can include oral and topical delivery. In the present studies unless otherwise stated route of administration was oral delivery.
Audiological evaluations were performed at specified intervals to evaluate the efficacy of Tests performed by physician or qualified audiologist. ECochG was performed at specified intervals by a physician specialist. Patient reported outcomes by self-administered questionnaire included the VSS (Yardley et al. 2004) and the TFI (Meikle et al. 2011). These were scored by study personnel.
Patient was started on oral dosage form of betahistine 16 mg three times daily (tds) for two weeks and reduced to 8 mg once daily thereafter for two months.

[6] = patient, review at two months of oral betahistine
[7] = patient, two months into oral betahistine treatment

## CNCCc1ccccn1 [betahistine]
[1]
  result versus placebo: no greater result than a placebo
[2]
  Eustachian tube function: improved
[3]
  toxicity: nontoxic
[4]; at best
  effect on eustachian tube function (tympanometry): no effect
[4]; higher dosages
  effect on eustachian tube function (tympanometry): Eustachian tube function became worse
[4]; volunteers found to have mild Eustachian tube dysfunction
  mild Eustachian tube dysfunction: not improved
[5]; all cases of secondary MD treated
  elevated SP/AP ratio indicating endolymphatic hydrops: normalized
[5]; patient, after treatment (before treatment 28.6%)
  Left Ear SP/AP Ratio, Average Ratio: Average Ratio of 16%
[5]; patient, after treatment, single traces
  Right Ear SP/AP Ratio: 9% and 18%
[5]; [6]
  repeat electrocochleograms: returned to normal levels
  symptoms at review: improved significantly
[5]; [7]
  repeat electrocochleograms: returned to normal levels
  symptoms at review: improved significantly
[5]; patients suffering from secondary MD
  treatment outcomes: invariably improved treatment outcomes
[5]; patients with activated cervical sympathetic nervous system and mild Eustachian tube dysfunction
  Eustachian tube function: facilitation of Eustachian tube function
